Measured values: ChEMBL document CHEMBL1201862, “PubChem BioAssay data set” (2004)
Active and inactive are the calls of the source.

Legend:
Format in all cases: functional
Activated CDC42 kinase 1 = Activated CDC42 kinase 1 (Homo sapiens, UniProt Q07912); assay: Navigating the Kinome. Panel member name: ACK1
[1] = molecular target: Cyclin-dependent kinase 5 (Homo sapiens, UniProt Q00535);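 further: CDK5 measured as one member of a kinase profiling panel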
[2] = molecular target: Leucine-rich repeat serine/threonine-protein kinase 2 (Homo sapiens, UniProt Q5S007);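 further: value from a broad kinome-wide panel profiling study in which LRRK2 was one of the kinases tested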
Sequence of Leucine-rich repeat serine/threonine-protein kinase 2 (Q5S007 whole entry): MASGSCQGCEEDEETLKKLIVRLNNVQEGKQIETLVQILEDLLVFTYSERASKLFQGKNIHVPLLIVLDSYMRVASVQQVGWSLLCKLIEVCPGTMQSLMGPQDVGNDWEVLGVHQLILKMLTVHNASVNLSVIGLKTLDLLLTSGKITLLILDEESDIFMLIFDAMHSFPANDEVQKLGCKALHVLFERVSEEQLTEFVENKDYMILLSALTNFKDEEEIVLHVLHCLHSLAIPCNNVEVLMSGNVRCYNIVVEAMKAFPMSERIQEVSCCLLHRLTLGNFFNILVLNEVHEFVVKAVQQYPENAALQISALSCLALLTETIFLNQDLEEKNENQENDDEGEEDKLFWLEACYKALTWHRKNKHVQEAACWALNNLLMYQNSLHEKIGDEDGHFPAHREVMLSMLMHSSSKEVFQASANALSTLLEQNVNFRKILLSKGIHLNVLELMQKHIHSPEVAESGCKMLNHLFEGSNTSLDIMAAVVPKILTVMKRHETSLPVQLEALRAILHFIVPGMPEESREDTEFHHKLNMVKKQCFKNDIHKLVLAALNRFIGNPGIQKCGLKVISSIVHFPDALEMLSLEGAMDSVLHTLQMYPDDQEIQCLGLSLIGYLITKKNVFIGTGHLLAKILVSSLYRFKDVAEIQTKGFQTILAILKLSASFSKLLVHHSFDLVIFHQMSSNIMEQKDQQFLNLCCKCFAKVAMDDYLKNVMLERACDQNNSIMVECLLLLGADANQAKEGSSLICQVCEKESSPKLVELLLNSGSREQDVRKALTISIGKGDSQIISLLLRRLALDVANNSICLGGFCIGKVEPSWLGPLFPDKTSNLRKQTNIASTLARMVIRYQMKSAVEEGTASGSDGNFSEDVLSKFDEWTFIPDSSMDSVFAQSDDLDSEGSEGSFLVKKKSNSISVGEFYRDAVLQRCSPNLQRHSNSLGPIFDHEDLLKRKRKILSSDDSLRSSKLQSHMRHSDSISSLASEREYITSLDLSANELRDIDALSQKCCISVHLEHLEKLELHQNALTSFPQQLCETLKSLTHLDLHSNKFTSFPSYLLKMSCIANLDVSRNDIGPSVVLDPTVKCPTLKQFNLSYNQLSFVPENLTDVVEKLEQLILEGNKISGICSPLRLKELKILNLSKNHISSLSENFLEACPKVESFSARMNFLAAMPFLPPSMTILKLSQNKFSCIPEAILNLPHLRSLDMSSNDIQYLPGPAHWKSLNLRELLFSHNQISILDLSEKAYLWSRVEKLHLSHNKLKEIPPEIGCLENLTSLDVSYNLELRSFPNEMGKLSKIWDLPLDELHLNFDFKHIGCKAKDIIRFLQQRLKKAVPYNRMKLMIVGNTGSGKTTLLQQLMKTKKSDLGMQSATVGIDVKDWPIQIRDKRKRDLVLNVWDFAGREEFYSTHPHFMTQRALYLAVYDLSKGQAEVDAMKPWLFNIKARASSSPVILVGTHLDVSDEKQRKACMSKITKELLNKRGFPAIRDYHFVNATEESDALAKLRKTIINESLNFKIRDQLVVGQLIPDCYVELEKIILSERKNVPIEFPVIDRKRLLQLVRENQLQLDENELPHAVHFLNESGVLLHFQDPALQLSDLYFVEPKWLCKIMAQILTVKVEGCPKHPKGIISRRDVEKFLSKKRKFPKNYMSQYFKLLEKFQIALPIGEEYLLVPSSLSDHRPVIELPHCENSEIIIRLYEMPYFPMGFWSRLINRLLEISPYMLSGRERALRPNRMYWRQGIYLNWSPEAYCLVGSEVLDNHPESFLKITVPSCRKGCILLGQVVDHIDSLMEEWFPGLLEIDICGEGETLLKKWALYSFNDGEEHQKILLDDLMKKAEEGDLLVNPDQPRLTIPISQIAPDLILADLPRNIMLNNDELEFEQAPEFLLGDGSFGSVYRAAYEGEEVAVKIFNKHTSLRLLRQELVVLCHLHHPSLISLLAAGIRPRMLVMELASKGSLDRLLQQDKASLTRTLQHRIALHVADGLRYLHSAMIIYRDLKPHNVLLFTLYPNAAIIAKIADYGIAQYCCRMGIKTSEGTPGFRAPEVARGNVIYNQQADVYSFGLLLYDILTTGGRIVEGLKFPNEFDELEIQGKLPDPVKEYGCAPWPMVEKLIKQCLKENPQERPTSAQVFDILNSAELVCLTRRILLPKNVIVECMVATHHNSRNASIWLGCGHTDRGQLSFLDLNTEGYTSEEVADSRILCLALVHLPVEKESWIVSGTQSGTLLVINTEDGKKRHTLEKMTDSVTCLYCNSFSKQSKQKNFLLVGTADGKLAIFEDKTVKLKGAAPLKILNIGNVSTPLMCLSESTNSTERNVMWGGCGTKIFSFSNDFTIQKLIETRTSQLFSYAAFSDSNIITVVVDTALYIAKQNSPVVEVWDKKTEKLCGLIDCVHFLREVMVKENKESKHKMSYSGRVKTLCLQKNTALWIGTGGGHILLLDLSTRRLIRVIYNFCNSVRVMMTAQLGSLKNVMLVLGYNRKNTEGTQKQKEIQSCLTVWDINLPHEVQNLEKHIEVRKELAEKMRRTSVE

[3] = molecular target: Mitogen-activated protein kinase 14 (Homo sapiens, UniProt Q16539);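 further: part of a kinome-wide panel, MAPK14 entry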
[4] = molecular target: Cyclin-dependent kinase 2 (Homo sapiens, UniProt P24941);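 further: CDK2 measured as one member of a broad kinome profiling panel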
[5] = molecular target: Tyrosine-protein kinase Lyn (Homo sapiens, UniProt P07948);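 further: lyn as one member of a kinase panel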
[6] = molecular target: Cyclin-dependent kinase 19 (Homo sapiens, UniProt Q9BWU1); assay: Navigating the Kinome. Panel member name: CDC2L6
Sequence of Cyclin-dependent kinase 19 (Q9BWU1 whole entry): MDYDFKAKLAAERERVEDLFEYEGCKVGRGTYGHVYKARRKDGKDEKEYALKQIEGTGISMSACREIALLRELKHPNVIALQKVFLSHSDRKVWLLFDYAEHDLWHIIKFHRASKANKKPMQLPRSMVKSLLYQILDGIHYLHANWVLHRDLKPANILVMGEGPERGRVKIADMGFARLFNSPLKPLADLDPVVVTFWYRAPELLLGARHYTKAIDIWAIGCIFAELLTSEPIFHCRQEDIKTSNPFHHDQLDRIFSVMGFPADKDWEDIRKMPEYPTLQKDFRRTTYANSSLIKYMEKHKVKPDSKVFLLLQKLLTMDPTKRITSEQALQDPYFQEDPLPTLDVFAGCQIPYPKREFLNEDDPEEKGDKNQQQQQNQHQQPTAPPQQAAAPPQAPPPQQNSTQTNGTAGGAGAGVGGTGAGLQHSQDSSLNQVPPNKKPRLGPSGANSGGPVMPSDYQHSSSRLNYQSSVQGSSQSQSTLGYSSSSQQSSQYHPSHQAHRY

[7] = molecular target: Inhibitor of nuclear factor kappa-B kinase subunit beta (Homo sapiens, UniProt O14920)
Sequence of Inhibitor of nuclear factor kappa-B kinase subunit beta (O14920 whole entry): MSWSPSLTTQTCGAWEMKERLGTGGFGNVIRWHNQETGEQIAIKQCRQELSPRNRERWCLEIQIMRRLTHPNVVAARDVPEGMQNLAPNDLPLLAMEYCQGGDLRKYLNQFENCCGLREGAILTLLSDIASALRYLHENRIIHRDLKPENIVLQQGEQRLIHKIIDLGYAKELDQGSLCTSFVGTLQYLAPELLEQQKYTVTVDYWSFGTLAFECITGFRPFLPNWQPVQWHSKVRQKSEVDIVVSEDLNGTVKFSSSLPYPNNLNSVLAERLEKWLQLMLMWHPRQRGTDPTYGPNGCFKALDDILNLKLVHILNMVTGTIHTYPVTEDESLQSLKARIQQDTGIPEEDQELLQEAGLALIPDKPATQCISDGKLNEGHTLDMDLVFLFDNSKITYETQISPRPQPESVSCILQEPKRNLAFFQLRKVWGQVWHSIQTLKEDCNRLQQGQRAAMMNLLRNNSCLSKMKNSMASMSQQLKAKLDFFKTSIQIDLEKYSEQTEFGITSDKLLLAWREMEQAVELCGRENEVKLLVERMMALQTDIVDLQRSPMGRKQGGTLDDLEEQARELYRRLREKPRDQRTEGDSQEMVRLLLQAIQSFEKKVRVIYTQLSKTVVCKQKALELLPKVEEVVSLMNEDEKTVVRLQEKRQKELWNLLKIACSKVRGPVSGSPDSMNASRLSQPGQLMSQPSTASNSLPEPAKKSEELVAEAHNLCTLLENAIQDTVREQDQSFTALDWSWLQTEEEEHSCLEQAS

Sequence of Activated CDC42 kinase 1 (Q07912 whole entry): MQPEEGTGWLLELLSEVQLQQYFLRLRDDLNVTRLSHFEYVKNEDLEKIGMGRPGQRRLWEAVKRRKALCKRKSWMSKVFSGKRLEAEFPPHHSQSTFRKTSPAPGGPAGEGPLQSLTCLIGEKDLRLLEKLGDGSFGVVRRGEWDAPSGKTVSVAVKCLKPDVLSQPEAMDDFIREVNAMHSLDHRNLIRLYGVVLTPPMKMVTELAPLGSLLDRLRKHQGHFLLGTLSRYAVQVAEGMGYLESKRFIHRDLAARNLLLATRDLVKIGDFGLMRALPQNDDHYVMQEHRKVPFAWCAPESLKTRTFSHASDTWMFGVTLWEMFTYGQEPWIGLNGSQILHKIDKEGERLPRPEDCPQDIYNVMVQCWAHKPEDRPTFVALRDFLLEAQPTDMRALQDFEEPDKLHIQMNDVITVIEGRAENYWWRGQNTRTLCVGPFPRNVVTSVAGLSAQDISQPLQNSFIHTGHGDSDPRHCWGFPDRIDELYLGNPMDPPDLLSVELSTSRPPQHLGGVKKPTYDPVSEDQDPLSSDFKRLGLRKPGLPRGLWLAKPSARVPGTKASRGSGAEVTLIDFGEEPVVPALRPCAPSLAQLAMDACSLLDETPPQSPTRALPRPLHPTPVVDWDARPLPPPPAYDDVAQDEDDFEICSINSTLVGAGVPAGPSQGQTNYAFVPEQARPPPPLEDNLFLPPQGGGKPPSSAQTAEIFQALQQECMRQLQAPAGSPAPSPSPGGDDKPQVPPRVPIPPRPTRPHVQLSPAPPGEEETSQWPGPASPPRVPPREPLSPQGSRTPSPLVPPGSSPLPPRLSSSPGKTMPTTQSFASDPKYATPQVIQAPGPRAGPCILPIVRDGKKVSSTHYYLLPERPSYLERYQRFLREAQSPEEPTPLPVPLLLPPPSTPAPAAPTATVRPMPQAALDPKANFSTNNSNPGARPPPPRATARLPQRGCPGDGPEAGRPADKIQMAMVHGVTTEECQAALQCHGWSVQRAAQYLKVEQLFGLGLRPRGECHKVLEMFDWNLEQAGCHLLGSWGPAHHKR
Sequence of Cyclin-dependent kinase 5 (Q00535 whole entry): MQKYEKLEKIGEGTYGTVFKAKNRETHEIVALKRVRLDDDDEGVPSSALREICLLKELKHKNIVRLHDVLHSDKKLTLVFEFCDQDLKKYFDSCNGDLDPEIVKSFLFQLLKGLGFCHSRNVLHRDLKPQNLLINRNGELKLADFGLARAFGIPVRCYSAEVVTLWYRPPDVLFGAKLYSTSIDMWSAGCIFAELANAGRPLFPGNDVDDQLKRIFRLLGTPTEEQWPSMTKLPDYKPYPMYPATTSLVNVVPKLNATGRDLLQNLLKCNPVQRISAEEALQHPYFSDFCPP

SMILES	Ki (Activated CDC42 kinase 1)	pKi (Activated CDC42 kinase 1)	Ki [1]	pKi [1]	Ki [2]	pKi [2]	Ki [3]	Ki [4]	Ki [5]	Ki [6]	Ki [7]
NC(=O)c1cc(-c2ccnc(N)n2)[nH]c1-c1ccc(Cl)cc1Cl	1260 nM (active)	5.9	316 nM (active)	6.5	316 nM (active)	6.5	> 3980 nM (inactive)	–	–	–	–
NC(COc1cncc(-c2ccc3c(c2)C(=Cc2ccco2)C(=O)N3)c1)Cc1c[nH]c2ccccc12 (stereo unspecified)	–	–	–	–	–	–	–	126 nM (active)	316 nM (active)	> 100000 nM (inactive)	1260 nM (active)
